Reference: patent publication US20220281848A1, “PYRAZOLE-SUBSTITUTED PYRROLIDINONES AS HERBICIDES” (FMC Corporation, priority 2019, published 2022)

System: plants
Test: Test D pre-emergence, other plants of Tables D1 and D3
Assay type: in vivo
Settings: preemergent, 20 DAA
How it was run: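 Seeds treated with herbicide safener; sown in soil; glasshouse, 16 h light, 65% humidity. Sprayed day 1 (pre) or ~day 12 (post). Spray in 0.2% v/v adjuvant. Scored 0–100 damage: 20 DAA pre, 15 d post.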

CN1CC(c2cc(C(F)(F)F)n(C)n2)C(C(=O)Nc2ccc(F)nc2F)C1=O (racemic) [Compound 22]
damage to plant (100=total damage to plant; 0=no damage to plant), ABUTH (rate 15): 0
damage to plant (100=total damage to plant; 0=no damage to plant), ABUTH (rate 30): 0
damage to plant (100=total damage to plant; 0=no damage to plant), ABUTH (rate 60): 0
damage to plant (100=total damage to plant; 0=no damage to plant), ABUTH (rate 130): 0
damage to plant (100=total damage to plant; 0=no damage to plant), ABUTH (rate 250): 0
damage to plant (100=total damage to plant; 0=no damage to plant), ABUTH (rate 500): 0
damage to plant (100=total damage to plant; 0=no damage to plant), AMARE (rate 15): 0
damage to plant (100=total damage to plant; 0=no damage to plant), AMARE (rate 30): 0
damage to plant (100=total damage to plant; 0=no damage to plant), AMARE (rate 60): 0
damage to plant (100=total damage to plant; 0=no damage to plant), AMARE (rate 130): 0
damage to plant (100=total damage to plant; 0=no damage to plant), AMARE (rate 250): 0
damage to plant (100=total damage to plant; 0=no damage to plant), AMARE (rate 500): 0
damage to plant (100=total damage to plant; 0=no damage to plant), BIDPI (rate 15): 0
damage to plant (100=total damage to plant; 0=no damage to plant), BIDPI (rate 30): 0
damage to plant (100=total damage to plant; 0=no damage to plant), BIDPI (rate 60): 0
damage to plant (100=total damage to plant; 0=no damage to plant), BIDPI (rate 130): 0
damage to plant (100=total damage to plant; 0=no damage to plant), BIDPI (rate 250): 0
damage to plant (100=total damage to plant; 0=no damage to plant), BIDPI (rate 500): 0
damage to plant (100=total damage to plant; 0=no damage to plant), BRAPL (rate 15): 0
damage to plant (100=total damage to plant; 0=no damage to plant), BRAPL (rate 30): 20
damage to plant (100=total damage to plant; 0=no damage to plant), BRAPL (rate 60): 70
damage to plant (100=total damage to plant; 0=no damage to plant), BRAPL (rate 130): 80
damage to plant (100=total damage to plant; 0=no damage to plant), BRAPL (rate 250): 90
damage to plant (100=total damage to plant; 0=no damage to plant), BRAPL (rate 500): 90
damage to plant (100=total damage to plant; 0=no damage to plant), CYPES (rate 15): 0
damage to plant (100=total damage to plant; 0=no damage to plant), CYPES (rate 30): 0
damage to plant (100=total damage to plant; 0=no damage to plant), CYPES (rate 60): 0
damage to plant (100=total damage to plant; 0=no damage to plant), CYPES (rate 130): 0
damage to plant (100=total damage to plant; 0=no damage to plant), CYPES (rate 250): 0
damage to plant (100=total damage to plant; 0=no damage to plant), CYPES (rate 500): 0
damage to plant (100=total damage to plant; 0=no damage to plant), DIGSA (rate 15): 0
damage to plant (100=total damage to plant; 0=no damage to plant), DIGSA (rate 30): 20
damage to plant (100=total damage to plant; 0=no damage to plant), DIGSA (rate 60): 80
damage to plant (100=total damage to plant; 0=no damage to plant), DIGSA (rate 130): 80
damage to plant (100=total damage to plant; 0=no damage to plant), DIGSA (rate 250): 100
damage to plant (100=total damage to plant; 0=no damage to plant), DIGSA (rate 500): 100
damage to plant (100=total damage to plant; 0=no damage to plant), ECHCG (rate 15): 0
damage to plant (100=total damage to plant; 0=no damage to plant), ECHCG (rate 30): 0
damage to plant (100=total damage to plant; 0=no damage to plant), ECHCG (rate 60): 60
damage to plant (100=total damage to plant; 0=no damage to plant), ECHCG (rate 130): 80
damage to plant (100=total damage to plant; 0=no damage to plant), ECHCG (rate 250): 90
damage to plant (100=total damage to plant; 0=no damage to plant), ECHCG (rate 500): 100
damage to plant (100=total damage to plant; 0=no damage to plant), ELEIN (rate 15): 0
damage to plant (100=total damage to plant; 0=no damage to plant), ELEIN (rate 30): 0
damage to plant (100=total damage to plant; 0=no damage to plant), ELEIN (rate 60): 0
damage to plant (100=total damage to plant; 0=no damage to plant), ELEIN (rate 130): 0
damage to plant (100=total damage to plant; 0=no damage to plant), ELEIN (rate 250): 0
damage to plant (100=total damage to plant; 0=no damage to plant), ELEIN (rate 500): 0
damage to plant (100=total damage to plant; 0=no damage to plant), EPHHL (rate 15): 0
damage to plant (100=total damage to plant; 0=no damage to plant), EPHHL (rate 30): 0
damage to plant (100=total damage to plant; 0=no damage to plant), EPHHL (rate 60): 0
damage to plant (100=total damage to plant; 0=no damage to plant), EPHHL (rate 130): 0
damage to plant (100=total damage to plant; 0=no damage to plant), EPHHL (rate 250): 0
damage to plant (100=total damage to plant; 0=no damage to plant), EPHHL (rate 500): 0
damage to plant (100=total damage to plant; 0=no damage to plant), GLXMA (rate 15): 0
damage to plant (100=total damage to plant; 0=no damage to plant), GLXMA (rate 30): 0
damage to plant (100=total damage to plant; 0=no damage to plant), GLXMA (rate 60): 0
damage to plant (100=total damage to plant; 0=no damage to plant), GLXMA (rate 130): 0
damage to plant (100=total damage to plant; 0=no damage to plant), GLXMA (rate 250): 0
damage to plant (100=total damage to plant; 0=no damage to plant), GLXMA (rate 500): 0
damage to plant (100=total damage to plant; 0=no damage to plant), IPOHE (rate 15): 0
damage to plant (100=total damage to plant; 0=no damage to plant), IPOHE (rate 30): 0
damage to plant (100=total damage to plant; 0=no damage to plant), IPOHE (rate 60): 0
damage to plant (100=total damage to plant; 0=no damage to plant), IPOHE (rate 130): 0
damage to plant (100=total damage to plant; 0=no damage to plant), IPOHE (rate 250): 0
damage to plant (100=total damage to plant; 0=no damage to plant), IPOHE (rate 500): 0
damage to plant (100=total damage to plant; 0=no damage to plant), ORYSA (rate 15): 0
damage to plant (100=total damage to plant; 0=no damage to plant), ORYSA (rate 30): 0
damage to plant (100=total damage to plant; 0=no damage to plant), ORYSA (rate 60): 0
damage to plant (100=total damage to plant; 0=no damage to plant), ORYSA (rate 130): 0
damage to plant (100=total damage to plant; 0=no damage to plant), ORYSA (rate 250): 0
damage to plant (100=total damage to plant; 0=no damage to plant), ORYSA (rate 500): 0
damage to plant (100=total damage to plant; 0=no damage to plant), PANMI (rate 15): 0
damage to plant (100=total damage to plant; 0=no damage to plant), PANMI (rate 30): 0
damage to plant (100=total damage to plant; 0=no damage to plant), PANMI (rate 60): 0
damage to plant (100=total damage to plant; 0=no damage to plant), PANMI (rate 130): 0
damage to plant (100=total damage to plant; 0=no damage to plant), PANMI (rate 250): 0
damage to plant (100=total damage to plant; 0=no damage to plant), PANMI (rate 500): 0
damage to plant (100=total damage to plant; 0=no damage to plant), SETFA (rate 15): 0
damage to plant (100=total damage to plant; 0=no damage to plant), SETFA (rate 30): 0
damage to plant (100=total damage to plant; 0=no damage to plant), SETFA (rate 60): 0
damage to plant (100=total damage to plant; 0=no damage to plant), SETFA (rate 130): 30
damage to plant (100=total damage to plant; 0=no damage to plant), SETFA (rate 250): 60
damage to plant (100=total damage to plant; 0=no damage to plant), SETFA (rate 500): 90
damage to plant (100=total damage to plant; 0=no damage to plant), SORVU (rate 15): 0
damage to plant (100=total damage to plant; 0=no damage to plant), SORVU (rate 30): 0
damage to plant (100=total damage to plant; 0=no damage to plant), SORVU (rate 60): 0
damage to plant (100=total damage to plant; 0=no damage to plant), SORVU (rate 130): 0
damage to plant (100=total damage to plant; 0=no damage to plant), SORVU (rate 250): 0
damage to plant (100=total damage to plant; 0=no damage to plant), SORVU (rate 500): 0
